According to PubChem BioAssay (NCI):
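Test compounds were applied to cells in 96-well plates for 48 hours at 5 doses. GI50: concentration for 50% inhibition of growth. TGI: concentration producing complete growth inhibition.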

Columns and labels:
Experiment in all cases: NCI anticancer screen, dose series, 48 h
[1] = system: UO-31 renal
[2] = system: HOP-62 NSCLC
[3] = system: PC-3 prostate
[4] = system: OVCAR-3 ovarian
[5] = system: NCI-H522 lung
[6] = system: IGROV1 ovarian
[7] = system: NCI-H226 lung
[8] = system: M14 melanoma
[9] = system: BT-549 breast
[10] = system: NCI/ADR-RES ovarian
[11] = system: UACC-62 melanoma
[12] = system: SF-268 CNS
[13] = system: HOP-92 NSCLC
[14] = system: MDA-MB-435
[15] = system: SN12C renal
[16] = system: SK-MEL-28 melanoma
[17] = system: HCT-116 colon
[18] = system: 786-0 renal
[19] = system: SR leukemia
[20] = system: MALME-3M melanoma
[21] = system: DU-145 prostate
[22] = system: TK-10 renal
[23] = system: COLO 205 colon
[24] = system: OVCAR-5 ovarian
[25] = system: MOLT-4 leukemia
[26] = system: HT29 colon
[27] = system: SK-OV-3 ovarian
[28] = system: MCF7 breast
[29] = system: LOX IMVI melanoma
[30] = system: SNB-75 CNS
[31] = system: UACC-257 melanoma
[32] = system: SW-620 colon
[33] = system: A498 renal
[34] = system: SF-295 CNS
[35] = system: T-47D breast
[36] = system: CCRF-CEM leukemia
[37] = system: CAKI-1 renal
[38] = system: A549 NSCLC
[39] = system: HS 578T breast
[40] = system: NCI-H460 lung
[41] = system: EKVX NSCLC
[42] = system: HL-60(TB) leukemia
[43] = system: KM12 colon
[44] = system: MDA-MB-231 breast
[45] = system: SF-539 CNS
[46] = system: RPMI-8226 leukemia
[47] = system: OVCAR-8 ovarian
[48] = system: SNB-19 CNS
[49] = system: U251 CNS
[50] = system: SK-MEL-5 melanoma
[51] = system: RXF 393 renal
[52] = system: OVCAR-4 ovarian
[53] = system: ACHN renal
[54] = system: SK-MEL-2 melanoma
[55] = system: HCC-2998 colon
[56] = system: HCT-15 colon

## COc1cc2c3c(n(CCCNCC4CC4)c(=O)c2cc1OC)-c1cc2c(cc1C3=O)OCO2
[1]
  GI50: 1.41 µM
  TGI: 2.79 µM
[2]
  GI50: 0.354 µM
  TGI: 1.6 µM
[3]
  GI50: 1.21 µM
  TGI: 2.84 µM
[4]
  GI50: 1.42 µM
  TGI: 2.84 µM
[5]
  GI50: 0.492 µM
  TGI: 2.1 µM
[6]
  GI50: 1.16 µM
  TGI: 2.75 µM
[7]
  GI50: 10.7 µM
  TGI: 28.7 µM
[8]
  GI50: 1.09 µM
  TGI: 2.38 µM
[9]
  GI50: 12.7 µM
  TGI: 26.7 µM
[10]
  GI50: 1.07 µM
  TGI: 2.89 µM
[11]
  GI50: 2.86 µM
  TGI: 21.1 µM
[12]
  GI50: 0.764 µM
  TGI: 2.49 µM
[13]
  GI50: 9.32 µM
  TGI: 21.9 µM
[14]
  GI50: 1.29 µM
  TGI: 2.57 µM
[15]
  GI50: 1.37 µM
  TGI: 3.23 µM
[16]
  GI50: 14.8 µM
  TGI: 28.8 µM
[17]
  GI50: 1.14 µM
  TGI: 2.54 µM
[18]
  GI50: 1.44 µM
  TGI: 2.81 µM
[19]
  GI50: 0.0708 µM
  TGI: 1.23 µM
[20]
  GI50: 1.49 µM
  TGI: 2.97 µM
[21]
  GI50: 0.759 µM
  TGI: 2.11 µM
[22]
  GI50: 15.6 µM
  TGI: 29.2 µM
[23]
  GI50: 1.11 µM
  TGI: 4.21 µM
[24]
  GI50: 1.74 µM
  TGI: 3.29 µM
[25]
  GI50: 0.0385 µM
  TGI: 1.54 µM
[26]
  GI50: 1.06 µM
  TGI: 2.32 µM
[27]
  GI50: 1.05 µM
  TGI: 7.63 µM
[28]
  GI50: 0.0953 µM
  TGI: 1.69 µM
[29]
  GI50: 0.349 µM
  TGI: 1.89 µM
[30]
  GI50: 1.74 µM
  TGI: 19.6 µM
[31]
  GI50: 13.6 µM
  TGI: 26.7 µM
[32]
  GI50: 0.573 µM
  TGI: 2.19 µM
[33]
  GI50: 12.6 µM
  TGI: 25.4 µM
[34]
  GI50: 0.307 µM
  TGI: 1.53 µM
[35]
  GI50: 7.13 µM
  TGI: 25.7 µM
[36]
  GI50: 0.082 µM
  TGI: 2.7 µM
[37]
  GI50: 0.99 µM
  TGI: 2.15 µM
[38]
  GI50: 1.22 µM
  TGI: 2.57 µM
[39]
  GI50: 18.8 µM
  TGI: 59.6 µM
[40]
  GI50: 0.243 µM
  TGI: 1.46 µM
[41]
  GI50: 1.78 µM
  TGI: 3.48 µM
[42]
  GI50: 1.47 µM
  TGI: 3.25 µM
[43]
  GI50: 1.37 µM
  TGI: 3.12 µM
[44]
  GI50: 1.44 µM
  TGI: 3.11 µM
[45]
  GI50: 0.763 µM
  TGI: 2.08 µM
[46]
  GI50: 0.636 µM
  TGI: 3.31 µM
[47]
  GI50: 1.11 µM
  TGI: 2.66 µM
[48]
  GI50: 0.781 µM
  TGI: 2.47 µM
[49]
  GI50: 0.473 µM
  TGI: 1.89 µM
[50]
  GI50: 10.1 µM
  TGI: 21.8 µM
[51]
  GI50: 1.49 µM
  TGI: 2.83 µM
[52]
  GI50: 1.73 µM
  TGI: 3.35 µM
[53]
  GI50: 0.439 µM
  TGI: 1.57 µM
[54]
  GI50: 20.8 µM
  TGI: 35.2 µM
[55]
  GI50: 1.24 µM
  TGI: 2.55 µM
[56]
  GI50: 1.25 µM
  TGI: 2.8 µM
